This note sets out measurements from ChEMBL document CHEMBL5465560, “Selectivity Literature for EUbOPEN Chemogenomic Library” (2024).

Assay [1] has as its target Ephrin type-A receptor 7 (Homo sapiens) (UniProt Q15375). The conditions noted are these: at 10 µM.
In assay [2] the target is Death-associated protein kinase 3 (Homo sapiens) (UniProt O43293). As to the kind of experiment: Selectivity interaction (KinomeScan (DiscoverX)) EUB0001079a DAPK3. The settings on record: at 1 µM.
In assay [3] the target is Homeodomain-interacting protein kinase 1 (Homo sapiens, UniProt Q86Z02). Kind of assay: Selectivity interaction (Enzymatic assay (Eurofins)) EUB0001049a HIPK1.
Assay [4] has as its target T1, Dual specificity mitogen-activated protein kinase kinase 5 (Homo sapiens) (UniProt Q13163).
T1 sequence (whole entry): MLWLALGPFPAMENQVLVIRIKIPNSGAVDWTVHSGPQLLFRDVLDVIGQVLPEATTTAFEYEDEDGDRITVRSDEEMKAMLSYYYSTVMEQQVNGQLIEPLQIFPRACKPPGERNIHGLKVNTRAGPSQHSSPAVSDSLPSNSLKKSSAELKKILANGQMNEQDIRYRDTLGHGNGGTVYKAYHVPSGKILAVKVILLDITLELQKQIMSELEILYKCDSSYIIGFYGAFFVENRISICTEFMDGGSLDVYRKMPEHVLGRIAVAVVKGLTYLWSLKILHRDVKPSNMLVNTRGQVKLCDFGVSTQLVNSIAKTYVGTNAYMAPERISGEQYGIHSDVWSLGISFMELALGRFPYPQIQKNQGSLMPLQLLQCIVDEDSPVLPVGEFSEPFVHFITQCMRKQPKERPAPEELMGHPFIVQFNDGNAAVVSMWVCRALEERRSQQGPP
Kind of assay: Selectivity interaction (KinomeScan (DiscoverX)) EUB0001049a MAP2K5. The conditions noted are these: at 1 µM.

Assay [5] addresses Protein kinase C gamma type (Homo sapiens) (UniProt P05129). As to the kind of experiment: Selectivity interaction (Kinase screening (Upstate/Millipore)) EUB0000604a PRKCG.
The target in assay [6] is Serine/threonine-protein kinase 33 (Homo sapiens) (UniProt Q9BYT3). As to the kind of experiment: Selectivity interaction (KinomeScan (DiscoverX)) EUB0000045b STK33.
Assay [7] has as its target Tyrosine-protein kinase receptor Tie-1 (Homo sapiens) (UniProt P35590). Kind of assay: Selectivity interaction (KinomeScan (DiscoverX)) EUB0000607a TIE1. The settings on record: at 10 µM.
In assay [8] the target is MAP kinase-activated protein kinase 5 (Homo sapiens, UniProt Q8IW41). Kind of assay: Selectivity interaction (Kinase panel (33PanQinase(R) Activity Assay)) EUB0000877a MAPKAPK5.
Assay [9] has as its system Hepatocyte growth factor receptor (Homo sapiens), P08581 [M1250T]. Kind of assay: (§1) Selectivity interaction (KinomeScan (DiscoverX)) EUB0000311b MET. The conditions noted are these: at 1 µM.
Assay [10] concerns Hepatocyte growth factor receptor (Homo sapiens), P08581 [Y1235D]. The assay is described as §1. The conditions noted are these: at 1 µM.
For assay [11], the target named is Hepatocyte growth factor receptor (Homo sapiens, UniProt P08581). Described as §1. The conditions noted are these: at 1 µM.
A further assay concerns the target Ephrin type-A receptor 4 (Homo sapiens, UniProt P54764). As to the kind of experiment: Selectivity interaction (KinomeScan (DiscoverX)) EUB0000618a EPHA4. The settings on record: at 10 µM.
In assay [12] the target is T2, Phosphatidylinositol 4,5-bisphosphate 3-kinase catalytic subunit delta isoform (Homo sapiens) (UniProt O00329).
T2 sequence (whole entry): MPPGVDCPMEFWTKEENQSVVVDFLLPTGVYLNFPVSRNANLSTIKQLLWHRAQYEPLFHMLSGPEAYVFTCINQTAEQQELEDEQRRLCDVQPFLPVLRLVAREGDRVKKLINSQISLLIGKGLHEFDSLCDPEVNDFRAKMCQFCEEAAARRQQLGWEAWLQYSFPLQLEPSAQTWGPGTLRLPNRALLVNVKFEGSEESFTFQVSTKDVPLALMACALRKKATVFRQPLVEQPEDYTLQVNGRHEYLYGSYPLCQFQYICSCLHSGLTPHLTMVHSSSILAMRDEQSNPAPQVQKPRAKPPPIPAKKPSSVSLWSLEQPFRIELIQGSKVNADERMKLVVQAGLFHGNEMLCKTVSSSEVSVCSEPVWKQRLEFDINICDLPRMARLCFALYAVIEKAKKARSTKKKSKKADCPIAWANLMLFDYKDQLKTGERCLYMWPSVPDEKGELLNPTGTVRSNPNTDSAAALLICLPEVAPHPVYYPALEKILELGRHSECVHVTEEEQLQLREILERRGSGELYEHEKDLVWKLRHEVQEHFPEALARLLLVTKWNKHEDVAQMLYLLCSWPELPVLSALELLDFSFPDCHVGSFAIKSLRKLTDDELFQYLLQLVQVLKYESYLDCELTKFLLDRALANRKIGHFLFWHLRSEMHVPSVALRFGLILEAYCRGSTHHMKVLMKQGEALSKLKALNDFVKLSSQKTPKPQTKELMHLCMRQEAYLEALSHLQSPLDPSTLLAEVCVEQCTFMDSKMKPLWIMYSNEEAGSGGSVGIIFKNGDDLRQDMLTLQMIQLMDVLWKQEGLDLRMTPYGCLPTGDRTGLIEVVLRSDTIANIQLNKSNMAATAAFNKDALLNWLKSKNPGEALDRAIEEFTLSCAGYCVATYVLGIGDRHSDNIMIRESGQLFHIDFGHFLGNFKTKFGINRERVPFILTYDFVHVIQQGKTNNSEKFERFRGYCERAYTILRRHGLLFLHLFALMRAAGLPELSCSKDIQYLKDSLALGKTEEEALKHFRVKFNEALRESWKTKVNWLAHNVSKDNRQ
As to the kind of experiment: Selectivity interaction (KinomeScan (DiscoverX)) EUB0000618a PIK3CD. The settings on record: at 10 µM.

The target in assay [13] is Mitogen-activated protein kinase kinase kinase 10 (Homo sapiens) (UniProt Q02779). As to the kind of experiment: Selectivity interaction (KinomeScan (DiscoverX)) EUB0000618a MAP3K10. The settings on record: at 10 µM.

Sequence of Serine/threonine-protein kinase 33 (Homo sapiens) (Q9BYT3 whole entry, looked up): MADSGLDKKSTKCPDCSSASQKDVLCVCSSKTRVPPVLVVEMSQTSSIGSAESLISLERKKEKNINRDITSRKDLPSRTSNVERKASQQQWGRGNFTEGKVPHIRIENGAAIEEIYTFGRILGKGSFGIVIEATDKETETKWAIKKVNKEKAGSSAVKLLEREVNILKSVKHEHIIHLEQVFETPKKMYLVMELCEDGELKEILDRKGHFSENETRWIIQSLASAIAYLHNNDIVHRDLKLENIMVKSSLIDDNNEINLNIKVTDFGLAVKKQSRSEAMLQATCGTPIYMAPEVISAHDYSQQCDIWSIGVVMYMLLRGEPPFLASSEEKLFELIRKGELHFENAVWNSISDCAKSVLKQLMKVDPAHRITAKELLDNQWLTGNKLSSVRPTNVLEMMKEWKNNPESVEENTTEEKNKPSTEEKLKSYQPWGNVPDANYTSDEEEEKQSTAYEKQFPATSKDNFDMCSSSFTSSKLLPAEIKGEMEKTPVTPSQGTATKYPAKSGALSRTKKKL
Sequence of Homeodomain-interacting protein kinase 1 (Q86Z02 whole entry): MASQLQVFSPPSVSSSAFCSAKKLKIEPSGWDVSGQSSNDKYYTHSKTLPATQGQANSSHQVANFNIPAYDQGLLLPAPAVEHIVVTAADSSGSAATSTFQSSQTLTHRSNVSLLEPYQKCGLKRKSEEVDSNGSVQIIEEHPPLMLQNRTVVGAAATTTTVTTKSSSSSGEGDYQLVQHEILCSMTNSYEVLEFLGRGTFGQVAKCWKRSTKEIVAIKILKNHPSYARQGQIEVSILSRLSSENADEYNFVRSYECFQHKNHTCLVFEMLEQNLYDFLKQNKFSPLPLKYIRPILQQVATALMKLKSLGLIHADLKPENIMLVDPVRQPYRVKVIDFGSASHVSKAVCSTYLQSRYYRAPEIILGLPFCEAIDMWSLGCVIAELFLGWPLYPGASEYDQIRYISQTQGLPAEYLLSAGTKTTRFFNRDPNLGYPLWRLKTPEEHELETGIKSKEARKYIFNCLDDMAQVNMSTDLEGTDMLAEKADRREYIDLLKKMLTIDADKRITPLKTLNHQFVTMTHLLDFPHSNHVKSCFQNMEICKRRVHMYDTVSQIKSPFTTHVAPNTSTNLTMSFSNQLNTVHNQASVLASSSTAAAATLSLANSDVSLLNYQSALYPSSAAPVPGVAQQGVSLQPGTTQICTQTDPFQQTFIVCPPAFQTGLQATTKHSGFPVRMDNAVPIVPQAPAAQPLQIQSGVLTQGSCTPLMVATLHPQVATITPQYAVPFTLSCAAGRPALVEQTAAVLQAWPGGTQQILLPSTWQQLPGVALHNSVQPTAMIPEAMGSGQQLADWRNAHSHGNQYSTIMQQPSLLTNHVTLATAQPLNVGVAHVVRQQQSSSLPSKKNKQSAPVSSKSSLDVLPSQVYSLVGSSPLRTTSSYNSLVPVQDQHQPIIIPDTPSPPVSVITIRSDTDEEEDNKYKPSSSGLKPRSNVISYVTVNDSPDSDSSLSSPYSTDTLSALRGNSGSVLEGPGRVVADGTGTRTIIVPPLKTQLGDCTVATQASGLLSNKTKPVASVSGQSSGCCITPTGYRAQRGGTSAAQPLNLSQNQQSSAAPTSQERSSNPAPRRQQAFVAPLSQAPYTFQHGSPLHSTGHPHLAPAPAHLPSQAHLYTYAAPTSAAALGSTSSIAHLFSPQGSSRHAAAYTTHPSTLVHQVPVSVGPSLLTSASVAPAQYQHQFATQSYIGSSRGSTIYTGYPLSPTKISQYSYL
Sequence of Ephrin type-A receptor 4 (P54764 whole entry, canonical isoform): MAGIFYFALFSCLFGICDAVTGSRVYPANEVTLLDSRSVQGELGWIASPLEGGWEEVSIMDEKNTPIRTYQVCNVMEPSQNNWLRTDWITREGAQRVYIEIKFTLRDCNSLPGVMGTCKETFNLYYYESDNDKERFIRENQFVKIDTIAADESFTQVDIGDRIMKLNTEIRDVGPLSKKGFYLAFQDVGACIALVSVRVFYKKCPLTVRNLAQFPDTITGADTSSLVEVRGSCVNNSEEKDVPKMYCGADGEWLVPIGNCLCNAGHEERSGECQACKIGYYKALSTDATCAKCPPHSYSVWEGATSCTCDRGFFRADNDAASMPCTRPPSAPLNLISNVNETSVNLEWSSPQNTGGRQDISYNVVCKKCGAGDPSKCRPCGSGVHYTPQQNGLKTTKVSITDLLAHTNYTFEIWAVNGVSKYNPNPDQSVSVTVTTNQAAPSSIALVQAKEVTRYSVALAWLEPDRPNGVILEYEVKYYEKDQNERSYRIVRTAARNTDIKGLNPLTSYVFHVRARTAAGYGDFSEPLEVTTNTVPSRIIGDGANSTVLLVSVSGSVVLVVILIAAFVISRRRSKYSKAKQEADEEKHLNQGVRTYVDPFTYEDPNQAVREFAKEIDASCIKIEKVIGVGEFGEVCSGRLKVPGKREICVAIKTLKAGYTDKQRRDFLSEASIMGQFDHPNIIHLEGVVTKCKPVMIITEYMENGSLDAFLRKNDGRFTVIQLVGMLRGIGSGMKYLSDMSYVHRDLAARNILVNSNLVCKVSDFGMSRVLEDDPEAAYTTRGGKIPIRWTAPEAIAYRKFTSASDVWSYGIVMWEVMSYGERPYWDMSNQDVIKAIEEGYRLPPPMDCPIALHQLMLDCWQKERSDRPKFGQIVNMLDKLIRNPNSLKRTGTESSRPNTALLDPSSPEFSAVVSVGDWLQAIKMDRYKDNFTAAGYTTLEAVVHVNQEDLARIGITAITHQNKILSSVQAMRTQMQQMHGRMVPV
Sequence of MAP kinase-activated protein kinase 5 (Q8IW41 whole entry): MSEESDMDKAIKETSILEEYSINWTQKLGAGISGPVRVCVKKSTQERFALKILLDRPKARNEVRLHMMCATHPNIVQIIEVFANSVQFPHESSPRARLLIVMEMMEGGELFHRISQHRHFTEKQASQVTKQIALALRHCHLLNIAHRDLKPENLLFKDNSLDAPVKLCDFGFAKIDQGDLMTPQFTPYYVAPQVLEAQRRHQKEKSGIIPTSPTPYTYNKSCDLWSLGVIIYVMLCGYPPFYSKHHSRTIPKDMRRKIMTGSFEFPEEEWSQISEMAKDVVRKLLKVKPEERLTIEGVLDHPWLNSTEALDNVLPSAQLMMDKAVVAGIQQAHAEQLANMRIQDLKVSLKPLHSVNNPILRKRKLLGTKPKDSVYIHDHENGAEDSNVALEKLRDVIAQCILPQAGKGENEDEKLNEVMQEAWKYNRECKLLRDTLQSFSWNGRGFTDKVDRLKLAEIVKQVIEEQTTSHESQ
Sequence of Tyrosine-protein kinase receptor Tie-1 (Homo sapiens) (P35590 whole entry): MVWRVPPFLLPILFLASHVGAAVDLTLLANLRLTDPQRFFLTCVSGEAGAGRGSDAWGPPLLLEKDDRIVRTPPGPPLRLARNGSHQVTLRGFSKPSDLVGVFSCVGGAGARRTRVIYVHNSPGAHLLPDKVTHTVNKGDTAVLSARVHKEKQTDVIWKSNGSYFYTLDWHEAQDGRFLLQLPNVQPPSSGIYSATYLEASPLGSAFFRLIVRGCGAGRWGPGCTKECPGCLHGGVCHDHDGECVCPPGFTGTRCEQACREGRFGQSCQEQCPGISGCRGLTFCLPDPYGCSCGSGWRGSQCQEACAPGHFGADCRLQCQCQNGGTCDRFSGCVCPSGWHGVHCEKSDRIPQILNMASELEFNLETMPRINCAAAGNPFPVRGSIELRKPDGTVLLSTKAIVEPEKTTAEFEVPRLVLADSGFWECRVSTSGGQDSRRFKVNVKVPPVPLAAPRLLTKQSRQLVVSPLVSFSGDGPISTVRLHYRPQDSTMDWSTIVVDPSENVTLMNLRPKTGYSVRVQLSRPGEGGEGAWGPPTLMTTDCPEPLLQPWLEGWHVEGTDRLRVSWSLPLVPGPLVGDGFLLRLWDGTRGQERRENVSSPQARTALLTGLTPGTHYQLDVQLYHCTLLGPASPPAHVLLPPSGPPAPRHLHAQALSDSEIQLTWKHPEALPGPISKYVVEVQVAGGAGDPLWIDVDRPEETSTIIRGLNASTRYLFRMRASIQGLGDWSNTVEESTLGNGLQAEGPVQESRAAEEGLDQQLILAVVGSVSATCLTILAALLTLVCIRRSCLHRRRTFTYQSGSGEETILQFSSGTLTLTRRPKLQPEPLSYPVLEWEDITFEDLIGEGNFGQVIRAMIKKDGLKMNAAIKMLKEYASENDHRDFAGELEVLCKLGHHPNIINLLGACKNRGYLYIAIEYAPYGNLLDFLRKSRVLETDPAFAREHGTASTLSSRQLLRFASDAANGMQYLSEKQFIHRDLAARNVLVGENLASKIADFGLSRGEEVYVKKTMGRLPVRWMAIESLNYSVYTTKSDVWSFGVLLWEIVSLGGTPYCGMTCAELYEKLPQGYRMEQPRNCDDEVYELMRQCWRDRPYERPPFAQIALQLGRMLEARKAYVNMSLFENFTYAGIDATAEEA
Sequence of Death-associated protein kinase 3 (Homo sapiens) (O43293 whole entry, looked up): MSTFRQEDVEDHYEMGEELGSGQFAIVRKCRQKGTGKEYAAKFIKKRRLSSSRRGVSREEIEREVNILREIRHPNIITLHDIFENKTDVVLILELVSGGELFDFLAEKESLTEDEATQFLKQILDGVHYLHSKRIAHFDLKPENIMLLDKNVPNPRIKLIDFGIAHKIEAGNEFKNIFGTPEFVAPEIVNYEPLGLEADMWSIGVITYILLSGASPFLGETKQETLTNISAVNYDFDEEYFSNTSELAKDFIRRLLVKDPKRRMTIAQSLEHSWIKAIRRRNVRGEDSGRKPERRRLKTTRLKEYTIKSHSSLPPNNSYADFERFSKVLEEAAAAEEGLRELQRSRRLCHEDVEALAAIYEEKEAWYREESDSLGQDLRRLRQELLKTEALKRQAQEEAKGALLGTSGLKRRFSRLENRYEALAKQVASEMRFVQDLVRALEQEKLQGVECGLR

`CCN(CC)CCCCNc1ncc2cc(-c3cc(OC)cc(OC)c3)c(NC(=O)NC(C)(C)C)nc2n1` had a % of control in [1] of 100%.
Compound `Nc1cnc(N2CCc3cc(S(=O)(=O)Nc4c(F)cc(Cl)cc4F)cc(N4CCCC4=O)c32)nc1` [TP-020n] came in with a % of control in assay [2] of 83%.
In general, IC50 refers to the point on the concentration scale where inhibition reaches its midpoint. Higher therefore signals lower potency. Take `COc1cc(Nc2nc(C)cc(-c3cnn4nc(OC)ccc34)n2)cc(C(F)(F)F)c1`: the IC50 in [3] is > 10 µM. In [4], this compound showed a % of control of 85%.
For `Cc1cnc(Nc2ccc(F)cc2Cl)nc1-c1c[nH]c(C(=O)N[C@H](CO)c2cccc(Cl)c2)c1`, the % of inhibition in [5] is 11%.
Consider `C=CC(=O)Nc1cc(-n2c(=O)ccc3cnc4ccc(-c5ccc(NS(C)(=O)=O)cc5)cc4c32)ccc1C`, for which the % of control in [6] (at 1 µM) stood at 100%; in assay [6] (at 10 µM), 95%.
In the case of `CNC(=O)Nc1ccc(-c2nc(N3CC4CCC(C3)O4)c3cnn(C4CCC5(CC4)OCCO5)c3n2)cc1`, the % of control in [7] was 98%.
Consider `CCC(=O)N1CC[C@H](Nc2ncnc3c2CN(c2cnc(OC)c(C(F)(F)F)c2)CC3)C1` [LENIOLISIB], for which the IC50 in assay [8] was > 10 µM.
For the compound `CCc1ccccc1C(=O)Nc1n[nH]c2c(C)c(F)c(C3C(C#N)=C(C)N(C)C(C)=C3C#N)cc12` [BAY-3827], the % of control in assay [9] turned out to be 25%; in assay [10], 16%; in assay [11], 7.3%.
For `O[C@H]1CC[C@H](Nc2ncc3nc(Nc4c(F)cc(F)cc4F)n([C@H]4CCOC4)c3n2)CC1`, the values for the % of control (on Ephrin type-A receptor 4; in assay [12]; in [13]) were 93%, 96% and 100%, respectively.
